Reference: US6670345B1 (Dabur Research Foundation, priority 1997, dated 2003)
In brackets after ≈: the same amount, converted by molar mass.

How the values were obtained:
Details in all cases: 72 hours
human prostate (DU145) = assay: MTT cytotoxicity assay, human prostate (DU145); assay type: cell-based
Method: (§1) After 72 hours, the assay was terminated and percent cyotoxicities calculated.

leukemia cells (MOLT-4) = assay: MTT cytotoxicity assay, leukemia cells (MOLT-4); assay type: cell-based, human
Method: as §1

human lung (L132) = assay: MTT cytotoxicity assay, human lung (L132); assay type: cell-based
Method: as §1

lymphoma cells (U937) = assay: MTT cytotoxicity assay, lymphoma cells (U937); assay type: cell-based, human
Method: as §1

human larynx (HeP.2) = assay: MTT cytotoxicity assay, human larynx (HeP.2); assay type: cell-based
Method: as §1

[1] = system: ovarian cancer cells (PA-1); assay: MTT cytotoxicity assay, ovarian cancer cells (PA-1); assay type: cell-based, human
Method: as §1

human colon (HT29) = assay: MTT cytotoxicity assay, human colon (HT29); assay type: cell-based
Method: as §1

| SMILES | ED50 Prostate DU 145 (human prostate (DU145)) [µg/mL] | ED50 Leukemia MOLT-4 (leukemia cells (MOLT-4)) [µg/mL] | ED50 Lung L 132 (human lung (L132)) [µg/mL] | ED50 Lymphoma U937 (lymphoma cells (U937)) [µg/mL] | ED50 Larynx Hep. 2 (human larynx (HeP.2)) [µg/mL] | ED50 Ovary PA-I [1] [µg/mL] | ED50 Colon HT-29 (human colon (HT29)) [µg/mL] |
| --- | --- | --- | --- | --- | --- | --- | --- |
| CC(C)C1CCC2(C(=O)O)CCC3(C)C(CCC4C5(C)CCC(N=Cc6ccc(F)cc6F)C(C)(C)C5CCC43C)C12 (stereo not drawn) [Derivative 1065] | 2.5 (≈ 4.3 µM) | 1.0 (≈ 1.72 µM) | 3.4 (≈ 5.84 µM) | 1.9 (≈ 3.27 µM) | 2.6 (≈ 4.47 µM) | 1.4 (≈ 2.41 µM) | 4.9 (≈ 8.42 µM) |
| C=C(C)C1CCC2(C(=O)OCC(=O)OC)CCC3(C)C(CCC4C5(C)CCC(NCCO)C(C)(C)C5CCC43C)C12 (stereo not drawn) [Derivative 1027] | 5.7 (≈ 9.97 µM) | 2.0 (≈ 3.5 µM) | 7.0 (≈ 12.2 µM) | 4.5 (≈ 7.87 µM) | 4.2 (≈ 7.34 µM) | >4.0 | 7.2 (≈ 12.6 µM) |
| CC(C)C1CCC2(C(=O)OC3CCC4(C)C(CCC5(C)C4CCC4C6C(C(C)C)CCC6(C(=O)O)CCC45C)C3(C)C)CCC3(C)C(CCC4C5(C)CC(Br)C(=O)C(C)(C)C5CCC43C)C12 (stereo not drawn) [Derivative 1161] | 0.4 (≈ 0.41 µM) | 0.34 (≈ 0.348 µM) | 3.5 (≈ 3.58 µM) | 0.3 (≈ 0.307 µM) | 1.4 (≈ 1.43 µM) | 1.2 (≈ 1.23 µM) | 3.5 (≈ 3.58 µM) |
| CC(C)C1CCC2(C(=O)O)CCC3(C)C(CCC4C5(C)CCC(=NNc6ccc(F)cc6)C(C)(C)C5CCC43C)C12 (stereo not drawn) [Derivative 829] | >10 | 0.4 (≈ 0.708 µM) | >4 | 0.5 (≈ 0.885 µM) | >10 | 0.5 (≈ 0.885 µM) | 1.3 (≈ 2.3 µM) |
| CC(C)C1CCC2(C(=O)O)CCC3(C)C(CCC4C5(C)CCC(OS(C)(=O)=O)C(C)(C)C5CCC43C)C12 (stereo not drawn) [Derivative 789] | >10 | 2.0 (≈ 3.73 µM) | 6.5 (≈ 12.1 µM) | 1.4 (≈ 2.61 µM) | >10 | >4.0 | 1.4 (≈ 2.61 µM) |
| CC(C)C1CCC2(C(=O)OC(=O)C34CCC(C(C)C)C3C3CCC5C6(C)CC(Br)C(=O)C(C)(C)C6CCC5(C)C3(C)CC4)CCC3(C)C(CCC4C5(C)CC(Br)C(=O)C(C)(C)C5CCC43C)C12 (stereo not drawn) [Derivative 1163] | 6.0 (≈ 5.7 µM) | 1.6 (≈ 1.52 µM) | 6.5 (≈ 6.17 µM) | 3.8 (≈ 3.61 µM) | 5.0 (≈ 4.75 µM) | >4.0 | 7.3 (≈ 6.93 µM) |
